Laboratory results published in the NIST ThermoML archive (doi:10.1016/j.jct.2008.12.004).

Assay: excess molar enthalpy (molar enthalpy of mixing); xn = mol fraction of the nth substance listed
Conditions: 101 kPa, Liquid, Flow calorimetry

C1CCCCC1 [cyclohexane] + CCCCCC
298.15 K
Conditions | excess molar enthalpy [kcal/mol]
x1 = 0.074 | 0.0116
x1 = 0.1463 | 0.0217
x1 = 0.219 | 0.0302
x1 = 0.2876 | 0.0377
x1 = 0.3542 | 0.0438
x1 = 0.4193 | 0.0482
x1 = 0.4832 | 0.0512
x1 = 0.5476 | 0.0524
x1 = 0.6085 | 0.0525
x1 = 0.6675 | 0.051
x1 = 0.7255 | 0.0476
x1 = 0.7839 | 0.0426
x1 = 0.8395 | 0.0353
x1 = 0.8935 | 0.026
x1 = 0.9482 | 0.014
x1 = 1 | 0

COC(C)(C)C [2-methoxy-2-methylpropane] + CCCO
298.15 K
Conditions | excess molar enthalpy [kcal/mol]
x1 = 0.0491 | 0.0148
x1 = 0.0997 | 0.0314
x1 = 0.1503 | 0.0481
x1 = 0.1976 | 0.0632
x1 = 0.2472 | 0.0781
x1 = 0.2965 | 0.0915
x1 = 0.3477 | 0.105
x1 = 0.4008 | 0.116
x1 = 0.4468 | 0.124
x1 = 0.4982 | 0.131
x1 = 0.5486 | 0.136
x1 = 0.5974 | 0.138
x1 = 0.6485 | 0.136
x1 = 0.6977 | 0.133
x1 = 0.7491 | 0.126
x1 = 0.7985 | 0.114
x1 = 0.8494 | 0.0963
x1 = 0.8986 | 0.0737
x1 = 0.9498 | 0.0413
x1 = 1 | 0

Cc1ccccc1 [toluene] + CCOC(C)(C)C
x2 = 0
Conditions | excess molar enthalpy [kcal/mol]
298.15 K | 0
313.15 K | 0

C1CCCCC1 [cyclohexane] + CCOC(C)(C)C
x2 = 0
Conditions | excess molar enthalpy [kcal/mol]
298.15 K | 0
313.15 K | 0

CCCCCC [hexane] + C1CCCCC1
Conditions | excess molar enthalpy [kcal/mol]
298.15 K, x2 = 0 | 0

COC(C)(C)C [2-methoxy-2-methylpropane] + CCCCCC
298.15 K
Conditions | excess molar enthalpy [kcal/mol]
x1 = 0.0504 | 0.0172
x1 = 0.1002 | 0.0319
x1 = 0.1497 | 0.045
x1 = 0.2008 | 0.0567
x1 = 0.2491 | 0.0658
x1 = 0.2994 | 0.0739
x1 = 0.3486 | 0.0805
x1 = 0.4002 | 0.0856
x1 = 0.4484 | 0.0883
x1 = 0.4997 | 0.0894
x1 = 0.5493 | 0.0885
x1 = 0.6006 | 0.0858
x1 = 0.6496 | 0.0815
x1 = 0.7001 | 0.0749
x1 = 0.75 | 0.0671
x1 = 0.7992 | 0.0569
x1 = 0.8501 | 0.0452
x1 = 0.9007 | 0.0316
x1 = 0.9506 | 0.0169
x1 = 1 | 0
